In ChEMBL document CHEMBL1201862, “PubChem BioAssay data set” (2004):
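Results reflect a 48-hour exposure of cells in 96-well plates to compound at five concentrations. GI50 marks 50% less growth.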 Activity calls are given as the source filed them. Rule as the data show it: active = GI50 up to about 1.1 µM and inactive = higher.

Assays:
Assay in all cases: NCI anticancer screen, dose series, 48 h
[1] = tested on: SN12C
[2] = tested on: 786-0
[3] = tested on: TK-10
[4] = tested on: SNB-19
[5] = tested on: SK-MEL-28
[6] = tested on: SF-268
[7] = tested on: SNB-75
[8] = tested on: KM-20L2
[9] = tested on: SK-MEL-2
[10] = tested on: COLO 205
[11] = tested on: NCI-H522
[12] = tested on: EKVX
[13] = tested on: HCC 2998
[14] = tested on: SNB-78
[15] = tested on: M19-MEL
[16] = tested on: OVCAR-8
[17] = tested on: IGROV-1
[18] = tested on: MOLT-4
[19] = tested on: K562
[20] = tested on: U-251
[21] = tested on: A549
[22] = tested on: CCRF-CEM
[23] = tested on: HCT-116
[24] = tested on: RXF 393
[25] = tested on: ACHN
[26] = tested on: UACC-62
[27] = tested on: HCT-15
[28] = tested on: HOP-62
[29] = tested on: NCI-H23
[30] = tested on: XF498
[31] = tested on: LOX IMVI
[32] = tested on: KM12
[33] = tested on: DLD-1
[34] = tested on: NCI-H460
[35] = tested on: SW-620
[36] = tested on: NCI-H226
[37] = tested on: SR
[38] = tested on: SF-295
[39] = tested on: HT-29
[40] = tested on: M14
[41] = tested on: SK-MEL-5
[42] = tested on: DMS-273
[43] = tested on: SF-539
[44] = tested on: OVCAR-5
[45] = tested on: DMS-114
[46] = tested on: OVCAR-4
[47] = tested on: LXFL 529
[48] = tested on: UO-31
[49] = tested on: A498
[50] = tested on: HL-60
[51] = tested on: HOP-18
[52] = tested on: RPMI-8226
[53] = tested on: Malme-3M
[54] = tested on: OVCAR-3
[55] = tested on: UACC-257
[56] = tested on: HOP-92
[57] = tested on: SK-OV-3
[58] = tested on: CAKI-1

Compound: CCCC(=O)c1c(NOC2OC(COC(C)=O)C(OC(C)=O)C(OC(C)=O)C2OC(C)=O)nc(OC)n(C)c1=O (configuration not stated)
- GI50 [1]: > 100 µM (inactive)
- GI50 [2]: > 100 µM (inactive)
- GI50 [3]: > 100 µM (inactive)
- GI50 [4]: > 100 µM (inactive)
- GI50 [5]: > 100 µM (inactive)
- GI50 [6]: > 100 µM (inactive)
- GI50 [7]: > 100 µM (inactive)
- GI50 [8]: > 100 µM (inactive)
- GI50 [9]: > 100 µM (inactive)
- GI50 [10]: > 100 µM (inactive)
- GI50 [11]: > 100 µM (inactive)
- GI50 [12]: > 100 µM (inactive)
- GI50 [13]: > 100 µM (inactive)
- GI50 [14]: > 100 µM (inactive)
- GI50 [15]: > 100 µM (inactive)
- GI50 [16]: > 100 µM (inactive)
- GI50 [17]: > 100 µM (inactive)
- GI50 [18]: > 100 µM (inactive)
- GI50 [19]: > 100 µM (inactive)
- GI50 [20]: > 100 µM (inactive)
- GI50 [21]: > 100 µM (inactive)
- GI50 [22]: > 100 µM (inactive)
- GI50 [23]: > 100 µM (inactive)
- GI50 [24]: > 100 µM (inactive)
- GI50 [25]: > 100 µM (inactive)
- GI50 [26]: > 100 µM (inactive)
- GI50 [27]: > 100 µM
- GI50 [28]: > 100 µM (inactive)
- GI50 [29]: > 100 µM (inactive)
- GI50 [30]: > 100 µM (inactive)
- GI50 [31]: > 100 µM (inactive)
- GI50 [32]: > 100 µM (inactive)
- GI50 [33]: > 100 µM (inactive)
- GI50 [34]: > 100 µM (inactive)
- GI50 [35]: > 100 µM (inactive)
- GI50 [36]: > 100 µM (inactive)
- GI50 [37]: > 100 µM (inactive)
- GI50 [38]: > 100 µM (inactive)
- GI50 [39]: > 100 µM (inactive)
- GI50 [40]: > 100 µM (inactive)
- GI50 [41]: > 100 µM (inactive)
- GI50 [42]: > 100 µM (inactive)
- GI50 [43]: > 100 µM (inactive)
- GI50 [44]: > 100 µM (inactive)
- GI50 [45]: > 100 µM (inactive)
- GI50 [46]: > 100 µM (inactive)
- GI50 [47]: > 100 µM (inactive)
- GI50 [48]: 6.1 µM (inactive)

Compound: NCCN1C(=O)C2C3c4ccccc4C(c4ccccc43)C2C1=O (configuration not stated)
- GI50 [1]: > 100 µM (inactive)
- GI50 [2]: > 100 µM (inactive)
- GI50 [3]: > 100 µM (inactive)
- GI50 [4]: > 100 µM (inactive)
- GI50 [5]: > 100 µM (inactive)
- GI50 [49]: > 100 µM (inactive)
- GI50 [6]: > 100 µM (inactive)
- GI50 [50]: > 100 µM (inactive)
- GI50 [51]: > 100 µM (inactive)
- GI50 [7]: 43.3 µM (inactive)
- GI50 [8]: > 100 µM (inactive)
- GI50 [9]: > 100 µM (inactive)
- GI50 [10]: > 100 µM (inactive)
- GI50 [52]: > 100 µM (inactive)
- GI50 [11]: > 100 µM (inactive)
- GI50 [53]: > 100 µM (inactive)
- GI50 [12]: > 100 µM (inactive)
- GI50 [13]: > 100 µM (inactive)
- GI50 [14]: > 100 µM (inactive)
- GI50 [15]: > 100 µM (inactive)
- GI50 [16]: > 100 µM (inactive)
- GI50 [17]: > 100 µM (inactive)
- GI50 [18]: > 100 µM (inactive)
- GI50 [19]: > 100 µM (inactive)
- GI50 [20]: > 100 µM (inactive)
- GI50 [21]: > 100 µM (inactive)
- GI50 [22]: > 100 µM (inactive)
- GI50 [23]: > 100 µM (inactive)
- GI50 [54]: > 100 µM (inactive)
- GI50 [25]: > 100 µM (inactive)
- GI50 [55]: > 100 µM (inactive)
- GI50 [26]: > 100 µM (inactive)
- GI50 [27]: > 100 µM
- GI50 [28]: > 100 µM (inactive)
- GI50 [29]: > 100 µM (inactive)
- GI50 [56]: 28.2 µM (inactive)
- GI50 [57]: > 100 µM (inactive)
- GI50 [32]: > 100 µM (inactive)
- GI50 [33]: > 100 µM (inactive)
- GI50 [34]: > 100 µM (inactive)
- GI50 [35]: > 100 µM (inactive)
- GI50 [36]: > 100 µM (inactive)
- GI50 [38]: > 100 µM (inactive)
- GI50 [39]: > 100 µM (inactive)
- GI50 [40]: > 100 µM (inactive)
- GI50 [41]: > 100 µM (inactive)
- GI50 [42]: > 100 µM (inactive)
- GI50 [43]: > 100 µM (inactive)
- GI50 [58]: > 100 µM (inactive)
- GI50 [44]: > 100 µM (inactive)
- GI50 [45]: > 100 µM (inactive)
- GI50 [46]: > 100 µM (inactive)
- GI50 [47]: > 100 µM (inactive)
- GI50 [48]: > 100 µM (inactive)
